The record followed here is patent publication US11208642B2, “Microbial syringol utilization” (Alliance for Sustainable Energy, LLC, priority 2018, dated 2021).

As a reminder, the Kd is the constant that tells how readily two partners part at equilibrium. A lower Kd goes with a tighter complex.

Assay [1] has as its target T1, GcoA-F169A and GcoB (Amycolatopsis sp., UniProt P0DPQ7, F169A/H210Q).
T1 construct: GST (N, cleaved yes); made in house; host or cells: E. coli Rosetta 2 (DE3)
Nature of the assay: Stoichiometric end-point analysis of reactants and products (HPLC, formaldehyde assay). The class given is biochemical. To be noted: for Formaldehyde produced: 100 μM substrate, 210 μM O2, reaction to completion. The procedure:
FIG. 3 depicts quantitative analyses of substrate consumption and product generation indicate nearly complete coupling of NADH/O2 consumption to substrate O-demethylation for guaiacol, and progressively more uncoupling for syringol and 3MC. NADH (200 μM) and guaiacol, syringol, or 3MC (100 or 200 μM) were incubated in air with 0.2 μM GcoA-F169A and GcoB (each) (25 mM HEPES, 50 mM NaCl, pH 7.5, 25° C., 210 μM O2). Reactants and products were quantified when the UV/vis spectra ceased changing and the reaction deemed complete. The total NADH consumed is compared above to the amounts of formaldehyde and de-methylated aromatic compound produced. Pyrogallol, the O-demethylated product of 3MC, was not detected under any condition. Error bars represent ±1 standard deviation from three or more independent measurements.
Since both methoxy groups of syringol can potentially serve as substrates, we examined syringol turnover in a number of ways. Syringol (100 μM) was first incubated with NADH (200 μM) and excess dissolved O2 (210 μM), and the reaction with the GcoA-F169A mutant allowed to go to completion. As with the guaiacol reaction, all of the NADH and syringol were consumed (FIG. 3), implying that syringol undergoes two O-demethylations, producing 3MC and then pyrogallol (210 μM O2, 25 mM HEPES, 50 mM NaCl, pH 7, 25° C.).
The stoichiometric analysis was next repeated with NADH and syringol present in equal concentrations (200 μM each; 210 μM O2), conditions expected to permit at most half of the available methoxy groups to react. All of the NADH and 150±6 μM of syringol were consumed; 200±3 μM formaldehyde and 120±2 μM 3MC were generated (Table 1, FIG. 3).
Formaldehyde determination. A colorimetric assay using tryptophan can be used to quantify the amount of formaldehyde produced in F169 GcoA/B reactions with guaiacol, syringol, or 3MC. 0.2 μM each of F169 GcoA mutants and GcoB were dissolved in air-saturated buffer (25 mM HEPES, 50 mM NaCl) in a cuvette at pH 7.5, 25° C. 100 μg/mL catalase was added to each reaction to capture any H2O2 formed during the uncoupled reaction. Two hundred μM NADH was added and the background rate recorded. One hundred (guaiacol, syringol, or 3MC) or 200 (syringol) μM of substrate was then added and the reaction monitored until there was no more change, due to either substrate, NADH or O2 depletion, whichever occurred first. 200 μL of the reaction was then quenched by adding 200 μL of a 0.1% tryptophan solution in 50% ethanol and 200 μL of 90% sulfuric acid. Upon thorough mixing, 40 μL of 1% FeCl3 was added. The solution was then incubated in a heating block for 90 min at 70° C. After cooling, the absorbance was read at 575 nm and the concentration of formaldehyde was calculated by using ε575 nm=4.2 mM^−1 cm^−1, obtained with formaldehyde as a standard. A negative control included everything but the substrate and was used as a baseline.
Analyte analysis of the above end-point reactions (100 μM guaiacol, syringol, or 3MC, or 200 μM syringol) was performed on an Agilent 1100 LC system (Agilent Technologies) equipped with a G1315B diode array detector (DAD). Each sample and standard was injected at a volume of 10 μL onto a Symmetry C18 column 5 μm, 4.6×150 mm column (Waters). The column temperature was maintained at 30° C. and the buffers used to separate the analytes of interest was 0.01% TFA in water (A)/acetonitrile (B). The separation was carried out using a gradient program of: (A)=99% and (B)=1% at time t=0 min; (A)=99% and (B)=1% at time t=2 min, (A)=50% and (B)=50% at t=8 min; (A)=1% and (B)=99% at t=8.01 min; (A)=99% and (B)=1% at t=10.01 min; (A)=99% and (B)=1% at t=11 min. The flow rate was held constant at 1.5 mL min^−1, resulting in a run time of 11 minutes. DAD wavelengths of 210 and 325 nm were used for analysis of the analytes of interest. Standard curves were generated using 0-500 μM of guaiacol, syringol, 3MC, catechol, and pyrogallol. […]

In assay [2] the target is GcoA (Amycolatopsis sp., UniProt P0DPQ7, H210Q). Nature of the assay: Syringol binding to wild-type GcoA (KD). From the text: The syringol binding mode can be modulated by active site engineering. Guaiacol assumes a productive orientation in the active site of GcoA due to the action of amino acid side chains that create a tight-fitting hydrophobic pocket. The closest contact is with GcoA-F169, which forms a hydrophobic interaction with the C6 carbon on the aromatic ring of guaiacol. […] We identified that the mutation of GcoA-F169 to a smaller residue may relieve the apparent steric clash between it and the bound ligand in the active site, allowing syringol to adopt a productive conformation. To test this hypothesis, GcoA-F169 was substituted with several alternative amino acids (A, S, H, V, I, and L) with the aim of introducing productive syringol turnover while retaining reactivity with guaiacol.
GcoA, sequence (P0DPQ7 whole entry H210Q): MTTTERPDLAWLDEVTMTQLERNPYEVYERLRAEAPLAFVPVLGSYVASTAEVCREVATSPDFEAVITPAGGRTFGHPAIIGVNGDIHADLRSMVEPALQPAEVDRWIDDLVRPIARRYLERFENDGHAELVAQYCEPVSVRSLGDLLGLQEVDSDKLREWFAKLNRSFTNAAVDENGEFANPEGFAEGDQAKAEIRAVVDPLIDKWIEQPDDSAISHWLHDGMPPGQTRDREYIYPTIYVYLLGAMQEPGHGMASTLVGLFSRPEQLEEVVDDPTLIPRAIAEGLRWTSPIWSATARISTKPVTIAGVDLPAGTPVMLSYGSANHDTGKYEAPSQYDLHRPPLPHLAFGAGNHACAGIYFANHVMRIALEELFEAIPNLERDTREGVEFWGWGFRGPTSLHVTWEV

The mark [3] stands for this setting: 200 μM syringol, 200 μM NADH, 210 μM O2.

T1 sequence (P0DPQ7 whole entry F169A/H210Q): as the sequence (P0DPQ7 whole entry H210Q) above, with F169A counted along it

As to `COc1cccc(O)c1O` [3MC, 3-methoxycatechol], in assay [1] (200 μM NADH), the Formaldehyde produced result is “approximately 100 μM”.

Compound `COc1cccc(OC)c1O` [syringol, 2,6-dimethoxyphenol] had a dissociation constant (Kd) in assay [2] of 2800 ± 400 nM. The compound further displayed a Formaldehyde produced in assay [1] (200 μM NADH) of 170 ± 10 µM. Also, in assay [1] (100 μM syringol, 200 μM NADH, 210 μM O2), the “Singly demethylated intermediate 3MC observed at end of reaction” value turned out to be 50 ± 4 µM. In assay [1] (setting [3]), the 3MC generated was 120 ± 2 µM, the Formaldehyde generated is 200 ± 3 µM and the Syringol consumed was 150 ± 6 µM. In addition, in assay [1] (any of the conditions used), the Pyrogallol detection entry is recorded as “not detected”.
